Source: patent publication US20100190817A1, “LARGE SUBSTITUENT, NON-PHENOLIC AMINE OPIOIDS” (RENSSELAER POLYTECHNIC INSTITUTE, priority 2008, published 2010)

Columns and labels:
κ opioid receptors = conditions: cited from earlier work
guinea pig μ receptors = conditions: cited from earlier work
mice = conditions: cited from earlier work; for duration of action (antinociception): 1 mg/kg ip in mice
human δ opioid receptor = human δ opioid receptor (Homo sapiens, UniProt P41143); assay: Opioid receptor binding assay, [3H]naltrindole (δ)
Sequence of human δ opioid receptor (P41143 whole entry): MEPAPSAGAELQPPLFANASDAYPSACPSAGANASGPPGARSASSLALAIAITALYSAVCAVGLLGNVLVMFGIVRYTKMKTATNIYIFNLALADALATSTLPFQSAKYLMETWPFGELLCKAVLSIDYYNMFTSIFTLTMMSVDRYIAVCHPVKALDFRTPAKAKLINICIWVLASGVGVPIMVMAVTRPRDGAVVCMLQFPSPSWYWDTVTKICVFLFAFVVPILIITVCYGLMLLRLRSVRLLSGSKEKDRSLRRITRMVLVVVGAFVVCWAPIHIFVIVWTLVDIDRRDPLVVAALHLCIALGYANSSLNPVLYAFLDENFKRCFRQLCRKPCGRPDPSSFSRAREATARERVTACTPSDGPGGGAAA

human κ opioid receptor = human κ opioid receptor (Homo sapiens, UniProt P41145); assay: Opioid receptor binding assay, [3H]U69,593 (κ)
Sequence of human κ opioid receptor (P41145 whole entry): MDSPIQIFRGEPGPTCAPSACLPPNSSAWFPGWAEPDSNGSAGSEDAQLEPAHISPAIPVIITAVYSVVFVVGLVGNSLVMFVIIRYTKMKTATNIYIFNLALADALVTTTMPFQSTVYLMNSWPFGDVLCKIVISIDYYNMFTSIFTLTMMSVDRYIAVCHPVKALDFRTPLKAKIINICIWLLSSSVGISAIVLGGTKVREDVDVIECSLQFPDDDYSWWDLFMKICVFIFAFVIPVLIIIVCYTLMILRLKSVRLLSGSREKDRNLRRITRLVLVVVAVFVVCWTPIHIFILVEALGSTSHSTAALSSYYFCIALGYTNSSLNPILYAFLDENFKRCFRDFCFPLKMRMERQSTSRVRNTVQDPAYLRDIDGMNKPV

human μ opioid receptor = human μ opioid receptor (Homo sapiens, UniProt P35372); assay: Opioid receptor binding assay, [3H]DAMGO (μ)
Sequence of human μ opioid receptor (P35372 whole entry): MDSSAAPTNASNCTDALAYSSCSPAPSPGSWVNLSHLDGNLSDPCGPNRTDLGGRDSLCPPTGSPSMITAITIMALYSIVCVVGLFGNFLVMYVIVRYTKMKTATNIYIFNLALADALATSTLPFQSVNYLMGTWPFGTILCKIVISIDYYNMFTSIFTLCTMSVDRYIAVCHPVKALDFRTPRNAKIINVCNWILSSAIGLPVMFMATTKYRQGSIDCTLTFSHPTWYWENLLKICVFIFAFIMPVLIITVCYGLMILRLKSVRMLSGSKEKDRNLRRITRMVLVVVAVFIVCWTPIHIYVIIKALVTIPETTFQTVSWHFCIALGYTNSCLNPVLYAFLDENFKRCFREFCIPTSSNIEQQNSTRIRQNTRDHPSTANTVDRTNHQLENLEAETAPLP

| Structure (SMILES) | affinity for κ opioid receptors (κ opioid receptors) | affinity for μ opioid receptors (guinea pig μ receptors) | duration of action (antinociception) (mice) | antinociception activity (mice; studies in vivo) | Ki (human δ opioid receptor) | Ki (human κ opioid receptor) | Ki (human μ opioid receptor) |
| --- | --- | --- | --- | --- | --- | --- | --- |
| C[C@H]1C2Cc3ccc(C(N)=O)cc3[C@@]1(C)CCN2CC1CC1 [Example 8-CAC, 8-carboxamidocyclazocine] | high affinity | high affinity | 15 h | high antinociception activity | – | – | – |
| CC1C2Cc3ccc(C(=O)NCCc4ccc(-c5cccc(N(C)C)c5)cc4)cc3C1(C)CCN2CC1CC1 (centres unmarked) [SJJ-B-074c] | – | – | – | – | 2.5 ± 0.17 nM | 0.26 ± 0.022 nM | 0.18 ± 0.055 nM |
| CC1C2Cc3ccc(C(=O)NCCc4ccc(-c5ccc(N)cc5)cc4)cc3C1(C)CCN2CC1CC1 (centres unmarked) [SJJ-B-112g] | – | – | – | – | 1.5 ± 0.078 nM | 0.39 ± 0.0085 nM | 0.0014 ± 0.0001 nM |
| CC1C2Cc3ccc(C(=O)NCCc4ccc(-c5ccc(CN(C)C)cc5)cc4)cc3C1(C)CCN2CC1CC1 (centres unmarked) [SJJ-C-013b] | – | – | – | – | 3.7 ± 0.15 nM | 1.9 ± 0.014 nM | 0.094 ± 0.0054 nM |
| CC1C2Cc3ccc(C(=O)NCCc4ccc(-c5ccc(NC(=O)OC(C)(C)C)cc5)cc4)cc3C1(C)CCN2CC1CC1 (centres unmarked) [SJJ-C-027b] | – | – | – | – | 3.1 ± 0.34 nM | 3.4 ± 0.32 nM | 0.32 ± 0.015 nM |
| C[C@H]1[C@H]2Cc3ccc(O)cc3[C@]1(C)CCN2CC1CC1 [cyclazocine] | – | – | 2 h | – | – | – | – |
